According to US11180504B2 (ORCHID PHARMA LTD., priority 2016, dated 2021):
≈ marks a conversion by molar mass, not a printed value.

How the values were obtained:
[1] = test system: carbapenem sensitive Escherichia coli; test: MIC by broth micro-dilution (CLSI), carbapenem sensitive E. coli; type: cell-based; conditions: Escherichia coli, ATCC25922, ESBL −ve E. coli ATCC25922; read-out: MIC
[2] = test system: carbapenem sensitive Pseudomonas aeruginosa; test: MIC by broth micro-dilution (CLSI), carbapenem sensitive P. aeruginosa; type: cell-based; conditions: Pseudomonas aeruginosa, ATCC27853, Meropenem susceptible P. aeruginosa ATCC27853; read-out: MIC
[3] = test system: carbapenemase producing K. pneumoniae; test: MIC by broth micro-dilution (CLSI), carbapenemase producing K. pneumoniae; type: cell-based, Klebsiella pneumoniae; conditions: Klebsiella pneumoniae, ATCCBAA1705, KPC-2 K. pneumoniae ATCC BAA-1705; read-out: MIC
[4] = test system: methicillin-sensitive Staphylococcus aureus; test: MIC by broth micro-dilution (CLSI), methicillin-sensitive S. aureus; type: cell-based; conditions: Staphylococcus aureus, ATCC 29213 / MSSA, MSSA S. aureus ATCC29213; read-out: MIC

SMILES | MIC [1] [µg/mL] | MIC [2] [µg/mL] | MIC [3] [µg/mL] | MIC [4] [µg/mL]
C[C@@H](NC(=O)Cn1cnnn1)[C@H]1C(=O)N2C(C(=O)O)=C(S[C@@H]3CN[C@H](C(=O)N4CC[C@@H](N(C)C)C4)C3)[C@H](C)[C@H]12 [Example 410, (4R,5S,6R)-6-((R)-1-(2-(1H-tetrazol-1-yl)acetamido)ethyl)-3-((3S,5S)-5-((R)-3-(dimethylamino)pyrrolidine-1-carbonyl)pyrrolidin-3-ylthio)-4-methyl-7-oxo-1-azabicyclo[3.2.0]hept-2-ene-2-carboxylic acid] | 0.5 (≈ 0.89 µM) | 4 (≈ 7.12 µM) | 4 (≈ 7.12 µM) | 2 (≈ 3.56 µM)
C[C@@H](NC(=O)Cn1cnnn1)[C@H]1C(=O)N2C(C(=O)O)=C(S[C@@H]3CN[C@H](C(=O)N4C[C@H](N)[C@@H](O)C4)C3)[C@H](C)[C@H]12 [Example 414, (4R,5S,6R)-6-((R)-1-(2-(1H-tetrazol-1-yl)acetamido)ethyl)-3-((3S,5S)-5-((3S,4S)-3-amino-4-hydroxypyrrolidine-1-carbonyl)pyrrolidin-3-ylthio)-4-methyl-7-oxo-1-azabicyclo[3.2.0]hept-2-ene-2-carboxylic acid] | 0.5 (≈ 0.91 µM) | 4 (≈ 7.28 µM) | 2 (≈ 3.64 µM) | 4 (≈ 7.28 µM)
C[C@@H](NC(=O)Cn1cnnn1)[C@H]1C(=O)N2C(C(=O)O)=C(SCCN)[C@H](C)[C@H]12 [Example 415, (4R,5S,6R)-6-((R)-1-(2-(1H-tetrazol-1-yl)acetamido)ethyl)-3-(2-aminoethylthio)-4-methyl-7-oxo-1-azabicyclo[3.2.0]hept-2-ene-2-carboxylic acid] | 2 (≈ 5.06 µM) | 16 (≈ 40.5 µM) | 1 (≈ 2.53 µM) | 4 (≈ 10.1 µM)
C[C@@H](NC(=O)Cn1cnnn1)[C@H]1C(=O)N2C(C(=O)O)=C(S[C@@H]3CN[C@H](C(=O)N4CCN(CCO)CC4)C3)[C@H](C)[C@H]12 [Example 416, (4R,5S,6R)-6-((R)-1-(2-(1H-tetrazol-1-yl)acetamido)ethyl)-3-((3S,5S)-5-(4-(2-hydroxyethyl)piperazine-1-carbonyl)pyrrolidin-3-ylthio)-4-methyl-7-oxo-1-azabicyclo[3.2.0]hept-2-ene-2-carboxylic acid] | 0.5 (≈ 0.866 µM) | 8 (≈ 13.8 µM) | 2 (≈ 3.46 µM) | 4 (≈ 6.92 µM)
C[C@@H](NC(=O)Cn1cnnn1)[C@H]1C(=O)N2C(C(=O)O)=C(S[C@@H]3CN[C@H](C(=O)N4CCN(CC(N)=O)CC4)C3)[C@H](C)[C@H]12 [Example 417, (4R,5S,6R)-6-((R)-1-(2-(1H-tetrazol-1-yl)acetamido)ethyl)-3-((3S,5S)-5-(4-(2-amino-2-oxoethyl)piperazine-1-carbonyl)pyrrolidin-3-ylthio)-4-methyl-7-oxo-1-azabicyclo[3.2.0]hept-2-ene-2-carboxylic acid] | 0.5 (≈ 0.847 µM) | 16 (≈ 27.1 µM) | 2 (≈ 3.39 µM) | 8 (≈ 13.5 µM)
C[C@@H](NC(=O)Cn1cnnn1)[C@H]1C(=O)N2C(C(=O)O)=C(S[C@@H]3CN[C@H](C(=O)N4CCC5(CCCCN5)CC4)C3)[C@H](C)[C@H]12 [Example 418, (4R,5S,6R)-3-((3S,5S)-5-(1,9-diazaspiro[5.5]undecane-9-carbonyl)pyrrolidin-3-ylthio)-6-((R)-1-(2-(1H-tetrazol-1-yl)acetamido)ethyl)-4-methyl-7-oxo-1-azabicyclo[3.2.0]hept-2-ene-2-carboxylic acid] | 1 (≈ 1.66 µM) | 8 (≈ 13.3 µM) | 4 (≈ 6.65 µM) | 8 (≈ 13.3 µM)
C[C@@H](NC(=O)Cn1cnnn1)[C@H]1C(=O)N2C(C(=O)O)=C(S[C@@H]3CN[C@H](C(=O)N4CCC(CO)CC4)C3)[C@H](C)[C@H]12 [Example 423, (4R,5S,6R)-6-((R)-1-(2-(1H-tetrazol-1-yl)acetamido)ethyl)-3-((3S,5S)-5-(4-(hydroxymethyl)piperidine-1-carbonyl)pyrrolidin-3-ylthio)-4-methyl-7-oxo-1-azabicyclo[3.2.0]hept-2-ene-2-carboxylic acid] | 0.5 (≈ 0.889 µM) | 32 (≈ 56.9 µM) | 2 (≈ 3.55 µM) | 8 (≈ 14.2 µM)
C[C@@H](NC(=O)Cn1cnnn1)[C@H]1C(=O)N2C(C(=O)O)=C(S[C@@H]3CN[C@H](C(=O)N4C[C@H](NC(=N)N)[C@@H](O)C4)C3)[C@H](C)[C@H]12 [Example 427, (4R,5S,6R)-6-((R)-1-(2-(1H-tetrazol-1-yl)acetamido)ethyl)-3-((3S,5S)-5-((3S,4S)-3-guanidino-4-hydroxypyrrolidine-1-carbonyl)pyrrolidin-3-ylthio)-4-methyl-7-oxo-1-azabicyclo[3.2.0]hept-2-ene-2-carboxylic acid] | 0.25 (≈ 0.423 µM) | 2 (≈ 3.38 µM) | 1 (≈ 1.69 µM) | 2 (≈ 3.38 µM)

Continued by falling MIC [1], values first:

MIC [1] [µg/mL] | MIC [2] [µg/mL] | MIC [3] [µg/mL] | MIC [4] [µg/mL] | SMILES
0.25 (≈ 0.457 µM) | 1 (≈ 1.83 µM) | 1 (≈ 1.83 µM) | 2 (≈ 3.65 µM) | C[C@@H]1C[C@H](N)CN1C(=O)[C@@H]1C[C@H](SC2=C(C(=O)O)N3C(=O)[C@H]([C@@H](C)NC(=O)Cn4cnnn4)[C@H]3[C@H]2C)CN1 [Example 411, (4R,5S,6R)-6-((R)-1-(2-(1H-tetrazol-1-yl)acetamido)ethyl)-3-((3S,5S)-5-((2R,4S)-4-amino-2-methylpyrrolidine-1-carbonyl)pyrrolidin-3-ylthio)-4-methyl-7-oxo-1-azabicyclo[3.2.0]hept-2-ene-2-carboxylic acid]
0.25 (≈ 0.444 µM) | 1 (≈ 1.77 µM) | 2 (≈ 3.55 µM) | 2 (≈ 3.55 µM) | C[C@@H](NC(=O)Cn1cnnn1)[C@H]1C(=O)N2C(C(=O)O)=C(S[C@@H]3CN[C@H](C(=O)N4C[C@@H](N)C[C@H]4CO)C3)[C@H](C)[C@H]12 [Example 412, (4R,5S,6R)-6-((R)-1-(2-(1H-tetrazol-1-yl)acetamido)ethyl)-3-((3S,5S)-5-((2S,4S)-4-amino-2-(hydroxymethyl)pyrrolidine-1-carbonyl)pyrrolidin-3-ylthio)-4-methyl-7-oxo-1-azabicyclo[3.2.0]hept-2-ene-2-carboxylic acid]
0.25 (≈ 0.456 µM) | 2 (≈ 3.65 µM) | 2 (≈ 3.65 µM) | 2 (≈ 3.65 µM) | C[C@@H](NC(=O)Cn1cnnn1)[C@H]1C(=O)N2C(C(=O)O)=C(S[C@@H]3CN[C@H](C(=O)N4CC(N)C(N)C4)C3)[C@H](C)[C@H]12 (stereo partly drawn) [Example 413, (4R,5S,6R)-6-((R)-1-(2-(1H-tetrazol-1-yl)acetamido)ethyl)-3-((3S,5S)-5-(3,4-diaminopyrrolidine-1-carbonyl)pyrrolidin-3-ylthio)-4-methyl-7-oxo-1-azabicyclo[3.2.0]hept-2-ene-2-carboxylic acid]
0.25 (≈ 0.413 µM) | 1 (≈ 1.65 µM) | 1 (≈ 1.65 µM) | 4 (≈ 6.61 µM) | C[C@@H](NC(=O)Cn1cnnn1)[C@H]1C(=O)N2C(C(=O)O)=C(S[C@@H]3CN[C@H](C(=O)N4CCN(C(=O)CCN)CC4)C3)[C@H](C)[C@H]12 [Example 419, (4R,5S,6R)-6-((R)-1-(2-(1H-tetrazol-1-yl)acetamido)ethyl)-3-((3S,5S)-5-(4-(3-aminopropanoyl)piperazine-1-carbonyl)pyrrolidin-3-ylthio)-4-methyl-7-oxo-1-azabicyclo[3.2.0]hept-2-ene-2-carboxylic acid]
0.25 (≈ 0.403 µM) | 2 (≈ 3.22 µM) | 1 (≈ 1.61 µM) | 4 (≈ 6.44 µM) | C[C@@H](NC(=O)Cn1cnnn1)[C@H]1C(=O)N2C(C(=O)O)=C(S[C@@H]3CN[C@H](C(=O)N4CCN(C(=O)[C@@H](N)CO)CC4)C3)[C@H](C)[C@H]12 [Example 420, (4R,5S,6R)-6-((R)-1-(2-(1H-tetrazol-1-yl)acetamido)ethyl)-3-((3S,5S)-5-(4-((S)-2-amino-3-hydroxypropanoyl)piperazine-1-carbonyl)pyrrolidin-3-ylthio)-4-methyl-7-oxo-1-azabicyclo[3.2.0]hept-2-ene-2-carboxylic acid]
0.25 (≈ 0.404 µM) | 4 (≈ 6.46 µM) | 2 (≈ 3.23 µM) | 4 (≈ 6.46 µM) | C[C@@H](NC(=O)Cn1cnnn1)[C@H]1C(=O)N2C(C(=O)O)=C(S[C@@H]3CN[C@H](C(=O)N4CCC(CNC(=O)CN)CC4)C3)[C@H](C)[C@H]12 [Example 422, (4R,5S,6R)-6-((R)-1-(2-(1H-tetrazol-1-yl)acetamido)ethyl)-3-((3S,5S)-5-(4-((2-aminoacetamido)methyl)piperidine-1-carbonyl)pyrrolidin-3-ylthio)-4-methyl-7-oxo-1-azabicyclo[3.2.0]hept-2-ene-2-carboxylic acid]
0.25 (≈ 0.448 µM) | 16 (≈ 28.6 µM) | 2 (≈ 3.58 µM) | 16 (≈ 28.6 µM) | C[C@@H](NC(=O)Cn1cnnn1)[C@H]1C(=O)N2C(C(=O)O)=C(S[C@@H]3CN[C@H](C(=O)N4CC(N)(CC#N)C4)C3)[C@H](C)[C@H]12 [Example 424, (4R,5S,6R)-6-((R)-1-(2-(1H-tetrazol-1-yl)acetamido)ethyl)-3-((3S,5S)-5-(3-amino-3-(cyanomethyl)azetidine-1-carbonyl)pyrrolidin-3-ylthio)-4-methyl-7-oxo-1-azabicyclo[3.2.0]hept-2-ene-2-carboxylic acid]
0.25 (≈ 0.414 µM) | 2 (≈ 3.31 µM) | 1 (≈ 1.66 µM) | 4 (≈ 6.63 µM) | C[C@@H](NC(=O)Cn1cnnn1)[C@H]1C(=O)N2C(C(=O)O)=C(S[C@@H]3CN[C@H](C(=O)N4CCC(N5CC(O)C5)CC4)C3)[C@H](C)[C@H]12 [Example 426, (4R,5S,6R)-6-((R)-1-(2-(1H-tetrazol-1-yl)acetamido)ethyl)-3-((3S,5S)-5-(4-(3-hydroxyazetidin-1-yl]piperidine-1-carbonyl)pyrrolidin-3-ylthio)-4-methyl-7-oxo-1-azabicyclo[3.2.0]hept-2-ene-2-carboxylic acid]
